# Test system: Adenovirus
# Experiment: ASTM E1052-20 microbicides against viruses in suspension
# Type: cell-based
# Conditions: 60 Seconds, remaining virus titre, Control 4.75
# Procedure: Skin, as used herein, is meant to include skin on the arms (including underarms), face, feet, neck, chest, hands, legs, buttocks and scalp (including hair). Sanitizing as used herein means a bacteria log kill of at least 2 and a viral log inactivation of at least 2 (both achieved) in less than 3 minutes after topical application to a surface. Sanitizing precursor means a composition which is a concentrate and suitable to be diluted (or hydrated) with water to produce a sanitizing composition ready for use. Combination, as used herein means, total weight of cetrimonium chloride plus benzalkonium chloride. Skin benefit agent means an ingredient suitable to improve a skin characteristic. Surface as used herein includes skin or the surface of an inanimate object such as a table top, computer monitor, door knob, toilet seat, shopping cart handle or even a clothing garment. Surface is also meant to include the coat of an animal such as the fur on a dog and cat. As used herein, surface preferably means human skin, and especially, skin on the face and hands. The dimonium and trimonium compounds used herein are meant to include salts of the same, especially chlorides and bromides of the same. Cationic surfactant, as used herein, is meant to include polyquaternium materials, like for example, polyquaternium-6. In an embodiment of the invention, the sanitizing composition of the present invention is a home care composition like a laundry spray composition suitable to spray clothing and upholstery requiring sanitizing. The home care composition can also be a sanitizing kitchen or bathroom spray composition. […] The composition of the present invention may optionally comprise skin benefit agents added thereto such as emollients, vitamins and/or derivatives thereof, resorcinols, retinoic acid precursors, colorants, moisturizers or humectants, fragrances, sunscreens, a mixture thereof or the like. The skin benefit ingredients may be water or oil soluble. The sanitizing composition, therefore, is an aqueous based composition with a pH from 3.0 to 8.2, and the composition is water continuous. Viscosity, as used herein, is taken with a Brookfield RV spindle 6 at 20 rpm for 30 seconds at 25° C. unless noted otherwise. […] Antimicrobial benefits mean at least a log kill of 2 in under 3 minutes whereby antimicrobial assessment is measured via test method ASTM-E2783-11 (Reapproved 2016) which sets forth the procedure for measuring antimicrobial activity for water miscible compounds using a time kill procedure. Viral (or virus) inactivation is determined by assessing the impact of microbiocides against viruses as set forth in ASTM-1052-20. […]
SMILES,"ADENOVIRUS Inactivation, Log10 TCID 50/0.1 ml (test substance at 0.05%) [Log10 TCID 50/0.1 ml]","ADENOVIRUS Inactivation, Log10 TCID 50/0.1 ml (test substance at 0.1%) [Log10 TCID 50/0.1 ml]"
"CCCCCCCCCCCCCCCC[n+]1ccccc1.[Cl-] [CPC, cetylpyridinum chloride]",1.6,1.6
"CCCCCCCCCCCCCCCC[N+](C)(C)C.[Br-] [CTAB, cetrimonium bromide]",2.5,1.75

# From patent US20230255868A1, “SANITIZING COMPOSITION” (Conopco, Inc., d/b/a UNILEVER, priority 2020, published 2023)
